Where a name gives a salt, the structure may show the parent alone.

Consider ten compounds from US20090170945A1, “[…]” (priority 2007, published 2009).

For data set [1] the following is noted: cited from earlier work.
Data set [2] in a line: Solubility in organic solvents. It counts as physicochemical. The text has this:
Pregabalin is obtainable by known methods, such as those described in EPB 641 330. […].
Suitable solvents include aliphatic cyclic ethers (e.g. dioxane), esters, and ketones (each of the ethers, esters, and ketones having 3 to 12 carbon atoms), and mixtures thereof as well as mixtures with water. The solubility may be enhanced by heating the reaction mixture. The presence of water enhances the solubility of both reagents (i.e., the pregabalin and the corresponding acid) substantially. Due to the high water solubility of the salt, however, the amount of water in the solvent should be minimized prior to the isolation of the salt (e.g. by evaporation of the solvent prior to the isolation), and preferably water is excluded from the solvent entirely. On the other hand, it was shown that the pregabalin salts of the invention are only slightly soluble in aliphatic ethers (such as diisopropyl ether and methyl tert. butyl ether) so that aliphatic ethers may be used as solvents in the salt forming reaction or as antisolvents for the isolation. Furthermore, alcohols as solvents are preferably avoided, as they may be esterified in the presence of the sulfonic acid to yield corresponding esters as byproducts. Thus alcoholic solvents and other non-inert solvents (e.g. solvents that will react under the salt forming conditions) are generally avoided.

Data set [3] in a line: Hygroscopicity of solid state salts under storage at ambient and humid conditions. It counts as physicochemical. The note with it: for hygroscopicity: storage at ambient and humid (40 C, 75% RH) conditions.
Protocol: Hygroscopicity of solid state pregabalin salts that passed the salt formation criterion were tested under storage at ambient and humid (40 C, 75% RH) conditions.
Data set [4] can be described thus: Formation of impurities during salt formation (HPLC) and stability studies. The conditions noted are these: for stability / impurities during salt formation: HPLC after the salt formation. As for the experimental part:
Formation of impurities during the salt forming process was tested by analyzing the samples by HPLC after the salt formation. Salts were also subjected to stability studies in the solid state; particularly, they were subjected to storage at 40 C and 75% RH in the open dish.

The conditions of data set [5]: per WO 96/40617; cited from earlier work.
A short description of data set [6]: Thermogravimetric measurements.

Consider `CC(C)C[C@H](CN)CC(=O)O` [Pregabalin, S-(+)-4-amino-3-(2-methylpropyl)butanoic acid], for which the “pKa (acidic carboxy group)” value in data set [1] (first of the two printed pKa values) is 4.2. For the same compound, in data set [1] (second of the two printed pKa values), the “pKa (basic amino group)” value is on record as 10.6. Besides, the solubility in ethanol result in data set [2] is listed as “poorly soluble”.
In the case of `CC(C)C[C@H](CN)CC(=O)O.O=S(=O)(O)CCS(=O)(=O)O` [ethane-1,2-disulfonic acid salt], the hygroscopicity entry in data set [3] is given as “very hygroscopic”. In data set [3] (storage in air (R.T.) for 36 days), the “water uptake on storage in air” value is given as “formation of a dihydrate”.
For the compound `CC(C)C[C@H](CN)CC(=O)O.O=S(=O)(O)c1cccc2c(S(=O)(=O)O)cccc12` [napadisylate, pregabalin 1,5-naphthalene disulfonate], the “solid state stability during prolonged storage” value in data set [4] (40 C and 75% RH, open dish) was “unstable”. Moreover, in data set [4], the “stability / impurities during salt formation” value was “stable”.
Regarding `CC(C)C[C@H](CN)CC(=O)O` [pregabalin hydrochloride], in data set [3], the hygroscopicity entry was “liquefied”.
Consider `CC(C)C[C@H](CN)CC(=O)O.O=C(O)[C@@H](O)c1ccccc1` [pregabalin mandelate, Pregabalin (S)-mandelate], for which the “stability in aqueous solutions” value in data set [4] (aqueous solution, lactam impurity) is on record as “unstable”. In data set [5], the “hydrolysis in water to free pregabalin” value is reported as “easily hydrolyzes in water”.
In the case of “Pregabalin Benzene Sulfonate [pregabalin besylate]”, the hygroscopicity entry in data set [3] was “non-hygroscopic”. The “thermal stability (thermogravimetry), stable up to” value in data set [6] is 160-170 °C. For the same compound, in data set [4], the “stability in solid state and in solution (overall statement)” value is “stable in both the solid state and in solution”; the “stability / impurities during salt formation” value was “stable”.
For the compound “Pregabalin p-toluene Sulfonate [pregabalin tosylate]”, the “thermal stability (thermogravimetry), stable up to” value in data set [6] was 160-170 °C. In data set [4], the “stability in solid state and in solution (overall statement)” value was “stable in both the solid state and in solution”; the “stability / impurities during salt formation” value is “stable”.
In the case of fumarate, in data set [4], the “stability / impurities during salt formation” value is reported as “formed with by-products”.
The same measure, in the same setting: the entry for maleate is “formed with by-products”; for pregabalin mesylate it is “stable”.
